Peptide text beside a SMILES is read from it. * marks the point of attachment. X14 = Cc1nc(C(=O)*)nn1-c1cc(Cl)cc(Cl)c1; X17 = Cc1cc(C(=O)*)nn1-c1cc(Cl)cc(Cl)c1; X18 = O=C(c1ccc(-c2cc(Cl)cc(Cl)c2)o1)*; X9 = O=C(c1ccn(-c2cc(Cl)cc(Cl)c2)c1)*; X13 = O=C(c1c[nH]c(-c2cccc(F)c2)n1)*; X11 = Cc1cc(C(=O)*)nn1-c1ccc(Cl)cc1; X12 = Cc1nc(C(=O)*)nn1-c1ccc(Cl)cc1; X16 = Cc1nc(C(=O)*)nn1-c1cccc(Cl)c1; X15 = O=C(c1ccn(-c2ccc(Cl)cc2)c1)*; X2 = Cc1cc(C(=O)*)nn1-c1cccc(Cl)c1; X3 = COc1ccc(-n2nc(C(=O)*)cc2C)cc1; X6 = COc1cccc(-n2nc(C(=O)*)cc2C)c1; X1 = Cc1cccc(-n2nc(C(=O)*)nc2C)c1; X4 = O=C(c1ccc(-c2cccc(Cl)c2)o1)*; X5 = O=C(c1csc(-c2ccc(Cl)cc2)n1)*; X7 = Cc1cc(C(=O)*)nn1-c1cccc(F)c1; X10 = Cc1cc(C(=O)*)nn1-c1ccccc1; X8 = Cn1cc(C(=O)*)nc1-c1ccccc1
Legend:
[1] = molecular target: Cyclin-dependent kinase 2/cyclin A (Homo sapiens, UniProt P24941); assay: Inhibition of human recombinant CDK2/Cyclin A2 using fluoresceinyl-Ahx-Pro-Val-Lys-Arg-Arg-Leu-Phe-Gly tracer peptide as substrate after 45 mins by fluorescent polarization binding assay; type: protein-complex assay
[2] = molecular target: Cyclin-dependent kinase 4/cyclin D1 (Homo sapiens, UniProt P11802); assay: Inhibition of human recombinant CDK4/Cyclin D1 using fluoresceinyl-Ahx-Pro-Val-Lys-Arg-Arg-Leu-(3ClPhe)-Gly tracer peptide as substrate after 45 mins by fluorescent polarization binding assay
Chain of Cyclin-dependent kinase 4/cyclin D1 (P11802 whole entry): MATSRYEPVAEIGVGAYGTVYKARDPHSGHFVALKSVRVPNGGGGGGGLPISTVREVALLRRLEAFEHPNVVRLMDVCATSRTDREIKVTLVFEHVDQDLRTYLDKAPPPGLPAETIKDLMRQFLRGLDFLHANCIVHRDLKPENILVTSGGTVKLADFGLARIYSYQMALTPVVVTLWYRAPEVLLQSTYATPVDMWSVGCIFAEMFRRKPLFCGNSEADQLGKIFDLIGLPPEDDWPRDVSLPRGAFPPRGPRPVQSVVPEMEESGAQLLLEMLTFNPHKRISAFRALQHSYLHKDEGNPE
Chain of Cyclin-dependent kinase 4/cyclin D1 (P24385 whole entry, further chain): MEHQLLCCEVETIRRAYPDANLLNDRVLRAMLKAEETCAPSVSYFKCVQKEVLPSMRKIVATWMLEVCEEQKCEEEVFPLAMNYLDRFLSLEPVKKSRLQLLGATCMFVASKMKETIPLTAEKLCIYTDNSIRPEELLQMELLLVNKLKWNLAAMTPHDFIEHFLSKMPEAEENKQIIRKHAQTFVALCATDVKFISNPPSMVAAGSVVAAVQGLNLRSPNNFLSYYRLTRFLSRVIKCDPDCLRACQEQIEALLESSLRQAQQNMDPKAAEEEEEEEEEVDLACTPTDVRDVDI

Row | SMILES | IC50 [1] [µM] | IC50 [2] [µM]
1 | Cc1nc(C(=O)N[C@@H](CCCNC(=N)N)C(=O)N[C@@H](CC(C)C)C(=O)NCc2cc(Oc3ccc(F)cc3)ccn2)nn1-c1ccc(Cl)cc1 | 18.1 | > 200
2 | CC[C@H](C)[C@H](NC(=O)[C@H](CC(C)C)NC(=O)[C@H](CCCNC(=N)N)NC(=O)c1nc(C)n(-c2cccc(C)c2)n1)C(=O)N[C@@H](Cc1ccccc1)C(N)=O (X1-RLIF-NH2) | 13.8 | 51.1
3 | Cc1nc(C(=O)N[C@@H](CCCNC(=N)N)C(=O)N[C@@H](CC(C)C)C(=O)NCc2cc(Oc3ccc(Cl)cc3)ccn2)nn1-c1ccc(Cl)cc1 | 54.4 | > 500
4 | Cc1nc(C(=O)N[C@@H](CCCNC(=N)N)C(=O)N[C@@H](CC(C)C)C(=O)NCc2cccc(Oc3ccccc3)c2)nn1-c1ccc(Cl)cc1 | 106 | > 200
5 | CC[C@H](C)[C@H](NC(=O)[C@H](CC(C)C)NC(=O)[C@H](CCCNC(=N)N)NC(=O)c1nc(C)n(-c2cccc(Cl)c2)n1)C(=O)N[C@@H](Cc1ccccc1)C(N)=O (X16-RLIF-NH2) | 5.7 | 26.5
6 | CC[C@H](C)[C@H](NC(=O)[C@H](CC(C)C)NC(=O)[C@H](CCCNC(=N)N)NC(=O)c1cn(C)c(-c2ccccc2)n1)C(=O)N[C@@H](Cc1ccccc1)C(N)=O (X8-RLIF-NH2) | > 180 | > 180
7 | Cc1nc(C(=O)N[C@@H](CCCNC(=N)N)C(=O)N[C@@H](CC(C)C)C(=O)NCc2cc(Oc3ccc(F)c(F)c3)ccn2)nn1-c1cc(Cl)cc(Cl)c1 | > 180 | > 180
8 | CC[C@H](C)[C@H](NC(=O)[C@H](CC(C)C)NC(=O)[C@H](CCCNC(=N)N)NC(=O)c1cc(C)n(-c2ccc(Cl)cc2)n1)C(=O)N[C@@H](Cc1ccccc1)C(N)=O (X11-RLIF-NH2) | 33.7 | 54.7
9 | CC[C@H](C)[C@H](NC(=O)[C@H](CC(C)C)NC(=O)[C@H](CCCNC(=N)N)NC(=O)c1ccc(-c2cccc(Cl)c2)o1)C(=O)N[C@@H](Cc1ccccc1)C(N)=O (X4-RLIF-NH2) | > 180 | > 180
10 | CC[C@H](C)[C@H](NC(=O)[C@H](CC(C)C)NC(=O)[C@H](CCCNC(=N)N)NC(=O)c1cc(C)n(-c2cccc(Cl)c2)n1)C(=O)N[C@@H](Cc1ccccc1)C(N)=O (X2-RLIF-NH2) | 11.9 | 70.3
11 | CC[C@H](C)[C@H](NC(=O)[C@H](CC(C)C)NC(=O)[C@H](CCCNC(=N)N)NC(=O)c1ccn(-c2ccc(Cl)cc2)c1)C(=O)N[C@@H](Cc1ccccc1)C(N)=O (X15-RLIF-NH2) | > 180 | > 180
12 | CC[C@H](C)[C@H](NC(=O)[C@H](CC(C)C)NC(=O)[C@H](CCCNC(=N)N)NC(=O)c1ccc(-c2cc(Cl)cc(Cl)c2)o1)C(=O)N[C@@H](Cc1ccccc1)C(N)=O (X18-RLIF-NH2) | > 180 | > 180
13 | CC[C@H](C)[C@H](NC(=O)[C@H](CC(C)C)NC(=O)[C@H](CCCNC(=N)N)NC(=O)c1nc(C)n(-c2ccc(Cl)cc2)n1)C(=O)N[C@@H](Cc1ccccc1)C(N)=O (X12-RLIF-NH2) | 11.5 | 12
14 | CC[C@H](C)[C@H](NC(=O)[C@H](CC(C)C)NC(=O)[C@H](CCCNC(=N)N)NC(=O)c1cc(C)n(-c2cccc(F)c2)n1)C(=O)N[C@@H](Cc1ccccc1)C(N)=O (X7-RLIF-NH2) | 29.6 | 65.9
15 | CC[C@H](C)[C@H](NC(=O)[C@H](CC(C)C)NC(=O)[C@H](CCCNC(=N)N)NC(=O)c1ccn(-c2cc(Cl)cc(Cl)c2)c1)C(=O)N[C@@H](Cc1ccccc1)C(N)=O (X9-RLIF-NH2) | > 180 | > 180
16 | Cc1nc(C(=O)N[C@@H](CCCNC(=N)N)C(=O)N[C@@H](CC(C)C)C(=O)NCc2cccc(Oc3cc(Cl)cc(Cl)c3)c2)nn1-c1cc(Cl)cc(Cl)c1 | > 180 | 120
17 | CC[C@H](C)[C@H](NC(=O)[C@H](CC(C)C)NC(=O)[C@H](CCCNC(=N)N)NC(=O)c1c[nH]c(-c2cccc(F)c2)n1)C(=O)N[C@@H](Cc1ccccc1)C(N)=O (X13-RLIF-NH2) | 34.3 | 68.5
18 | Cc1nc(C(=O)N[C@@H](CCCNC(=N)N)C(=O)N[C@@H](CC(C)C)C(=O)NCc2cc(Oc3cccc(Cl)c3)ccn2)nn1-c1cc(Cl)cc(Cl)c1 | 61 | 120
19 | Cc1ccccc1Oc1ccnc(CNC(=O)[C@H](CC(C)C)NC(=O)[C@H](CCCNC(=N)N)NC(=O)c2nc(C)n(-c3ccc(Cl)cc3)n2)c1 | 60 | > 500
20 | CC[C@H](C)[C@H](NC(=O)[C@H](CC(C)C)NC(=O)[C@H](CCCNC(=N)N)NC(=O)c1nc(C)n(-c2cc(Cl)cc(Cl)c2)n1)C(=O)N[C@@H](Cc1ccccc1)C(N)=O (X14-RLIF-NH2) | 4 | 27.3
21 | Cc1nc(C(=O)N[C@@H](CCCNC(=N)N)C(=O)N[C@@H](CC(C)C)C(=O)NCc2cc(Oc3cccc(F)c3)ccn2)nn1-c1ccc(Cl)cc1 | 53.2 | > 200
22 | CC[C@H](C)[C@H](NC(=O)[C@H](CC(C)C)NC(=O)[C@H](CCCNC(=N)N)NC(=O)c1cc(C)n(-c2ccc(OC)cc2)n1)C(=O)N[C@@H](Cc1ccccc1)C(N)=O (X3-RLIF-NH2) | > 180 | > 180
23 | CC[C@H](C)[C@H](NC(=O)[C@H](CC(C)C)NC(=O)[C@H](CCCNC(=N)N)NC(=O)c1csc(-c2ccc(Cl)cc2)n1)C(=O)N[C@@H](Cc1ccccc1)C(N)=O (X5-RLIF-NH2) | > 180 | > 180
24 | CC[C@H](C)[C@H](NC(=O)[C@H](CC(C)C)NC(=O)[C@H](CCCNC(=N)N)NC(=O)c1cc(C)n(-c2ccccc2)n1)C(=O)N[C@@H](Cc1ccccc1)C(N)=O (X10-RLIF-NH2) | 40.3 | 54.2
25 | CC[C@H](C)[C@H](NC(=O)[C@H](CC(C)C)NC(=O)[C@H](CCCNC(=N)N)NC(=O)c1cc(C)n(-c2cc(Cl)cc(Cl)c2)n1)C(=O)N[C@@H](Cc1ccccc1)C(N)=O (X17-RLIF-NH2) | 21.8 | > 100
26 | CC[C@H](C)[C@H](NC(=O)[C@H](CC(C)C)NC(=O)[C@H](CCCNC(=N)N)NC(=O)c1cc(C)n(-c2cccc(OC)c2)n1)C(=O)N[C@@H](Cc1ccccc1)C(N)=O (X6-RLIF-NH2) | 64.1 | > 100

Source: ChEMBL document CHEMBL2321725, “Optimization of non-ATP competitive CDK/cyclin groove inhibitors through REPLACE-mediated fragment assembly” (J Med Chem, 2013)
